Source: PubChem BioAssay (NCI)
Where “and” joins values, the source holds several entries; their conditions need not be identical. Equal entries are not always repeated.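 Method: 48-hour compound exposure of cells in 96-well plates, five concentrations, linear interpolation of endpoints. Abbreviation: GI50, concentration required for 50% inhibition of growth. TGI is the concentration that stops growth completely.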 Where a SMILES comes first, the peptide text is derived from it. [ ]: non-standard residue; d: D form. The star is where a group is joined. ξ: configuration not given here. X16 = COC1=CC(=O)N(C(=O)C(O*)C(C)C)C1Cc1ccccc1; ξNMe2Val = CC(C)C(C(=O)*)N(C)C; NMeV = CN[CH](C(=O)O)C(C)C

Legend:
Experiment in all cases: DTP human tumour cell line panel, 48 h
HL-60(TB) leukemia = tested on: HL-60(TB) leukemia
HOP-92 NSCLC = tested on: HOP-92 NSCLC
786-0 renal = tested on: 786-0 renal
HCT-116 colon = tested on: HCT-116 colon
HT29 colon = tested on: HT29 colon
OVCAR-4 ovarian = tested on: OVCAR-4 ovarian
SW-620 colon = tested on: SW-620 colon
SF-539 CNS = tested on: SF-539 CNS
SNB-75 CNS = tested on: SNB-75 CNS
OVCAR-8 ovarian = tested on: OVCAR-8 ovarian

Row | Structure (SMILES) | TGI (HL-60(TB) leukemia) | TGI (HOP-92 NSCLC) | TGI (786-0 renal) | TGI (HCT-116 colon) | TGI (HT29 colon) | TGI (OVCAR-4 ovarian) | TGI (SW-620 colon) | TGI (SF-539 CNS) | TGI (SNB-75 CNS) | TGI (OVCAR-8 ovarian) | GI50 (HL-60(TB) leukemia) | GI50 (HOP-92 NSCLC) | GI50 (OVCAR-4 ovarian) | GI50 (SNB-75 CNS) | GI50 (SW-620 colon) | GI50 (OVCAR-8 ovarian) | GI50 (SF-539 CNS)
1 | CC(=O)N[C@@H](Cc1ccc(O)cn1)C(=O)NCc1cccc(F)c1 | > 100 µM | > 100 µM | > 100 µM | > 100 µM | > 100 µM | > 100 µM | > 100 µM | > 100 µM |  |  |  |  |  |  |  |  | 
2 | COc1ccc(C2CC(c3cc4c(C)c(C(=O)c5ccccc5)oc4cc3O)=Nc3ccccc3S2)cc1OC (stereo not given) | > 100 µM | > 73.7 µM | > 100 µM | > 100 µM | > 100 µM | > 48.9 µM | > 100 µM | > 86.2 µM | > 100 µM | > 100 µM |  |  |  |  |  |  | 
3 | O=C1N[C@H]2c3c(Cl)sc(Cl)c3C(=O)[C@H]2O1 | 4.98 µM | 41.6 µM | > 54.2 µM | > 35.6 µM | 13.8 µM | 37.5 µM | 7.71 µM | 39.9 µM | 34.9 µM | 12.2 µM |  |  |  |  |  |  | 
4 | CN(NC(=O)c1ccco1)C1=NCCCCN1 | > 100 µM | > 100 µM | > 100 µM | > 100 µM | > 100 µM | > 100 µM | > 100 µM | > 100 µM | > 100 µM | > 100 µM |  |  |  |  |  |  | 
5 | C[N+]1(C)CC=C(N2CCOCC2)CC1 | > 10 µM |  | > 10 µM | > 10 µM | > 10 µM | > 10 µM | > 10 µM | > 10 µM | > 10 µM | > 10 µM |  |  |  |  |  |  | 
6 | Cc1cc(Br)c(N2C3=C(CC4=C2CCCC4=O)C(=O)CCC3)c(Br)c1 | > 100 µM | 94.3 µM | > 100 µM |  | > 100 µM | > 100 µM | > 100 µM | > 100 µM | > 100 µM | > 100 µM |  |  |  |  |  |  | 
7 | N#Cc1c(-c2ccco2)c2c(n(C3OC(CO)C(O)C(O)C3O)c1=S)CCCC2 (stereo not given) | > 100 µM | > 100 µM | > 100 µM | > 100 µM | > 100 µM | > 100 µM |  | > 100 µM | 0.0981 µM | > 100 µM |  |  |  |  |  |  | 
8 | Cc1ncc([N+](=O)[O-])n1CCN(C)CCCCn1ccnc1[N+](=O)[O-] | > 100 µM |  | > 100 µM | > 100 µM | > 100 µM | > 100 µM | > 100 µM | > 100 µM | > 100 µM | > 100 µM |  |  |  |  |  |  | 
9 | CC12CC3c4ccccc4CN1C3(c1ccccc1)OC2=O (stereo not given) | > 100 µM |  | > 100 µM | > 100 µM | > 100 µM | > 100 µM | > 100 µM | > 100 µM | > 100 µM | > 100 µM |  |  |  |  |  |  | 
10 | Oc1ccc(-c2cc(-c3c(O)cc(O)cc3O)on2)cc1 | > 100 µM |  | > 100 µM | > 100 µM | > 100 µM | > 100 µM | > 100 µM | > 100 µM | > 100 µM | > 100 µM |  |  |  |  |  |  | 
11 | COC1=CC(=O)N(C(=O)C(OC(=O)C2CCCN2C(=O)C2CCCN2C(=O)C(C(C)C)N(C)C(=O)C(NC(=O)C(C(C)C)N(C)C)C(C)C)C(C)C)C1Cc1ccccc1 (stereo not given) (ξNMe2Val-V[NMeV]PP-X16; configuration not given here) | 0.00123 µM and < 0.0004 µM |  |  |  | 0.0066 µM | > 4 µM | > 4 µM | 0.00516 µM and 0.0481 µM |  |  | < 0.0004 µM | 0.000954 µM | 0.663 µM | < 0.0004 µM | < 0.0004 µM | < 0.0004 µM | < 0.0004 µM
12 | c1ccc2[nH]c(-c3nc4ccccc4o3)nc2c1 | > 100 µM | > 100 µM | > 100 µM | > 100 µM | > 100 µM | > 100 µM |  | > 100 µM | > 100 µM | > 100 µM |  |  |  |  |  |  | 
13 | C[N+]1(C)C2Cc3ccccc3C1Cc1ccccc12 | > 100 µM | > 100 µM | > 100 µM | > 100 µM | > 100 µM | > 100 µM | > 100 µM | > 100 µM |  | > 100 µM |  |  |  |  |  |  | 
14 | C=CCN1C(=O)CS/C1=N\NC(=O)c1c(C)nc2sccn12 | > 100 µM | > 100 µM | > 100 µM | > 100 µM | > 100 µM |  | > 100 µM | > 100 µM |  | > 100 µM |  |  |  |  |  |  | 
15 | CC(C)CN1CN(c2ccccc2)C2(CCN(CC(C)(c3ccc(F)cc3)C3OCCO3)CC2)C1=O (stereo not given) | 12.8 µM |  | 12.1 µM | 13.9 µM | 5.94 µM | 29.7 µM | 17.5 µM | 18.2 µM | 20 µM | 29.3 µM |  |  |  |  |  |  | 
16 | N#CI1OC(=O)c2ccccc21 | > 100 µM |  | > 100 µM | > 100 µM | > 100 µM | > 100 µM | > 100 µM | > 100 µM | > 100 µM | > 100 µM |  |  |  |  |  |  | 
17 | Cc1ccc(OP2(=O)Oc3ccc4ccccc4c3CN2c2ccc(Cl)cc2)cc1C (stereo not given) | > 100 µM | > 100 µM |  | > 100 µM | > 100 µM | > 100 µM | > 100 µM | > 100 µM | > 100 µM | > 100 µM |  |  |  |  |  |  | 
18 | COC(=O)c1ccc(CN2CCc3c([nH]c4ccccc34)C2CO)o1 (stereo not given) | > 10 µM | > 10 µM | > 10 µM |  | > 10 µM | > 10 µM | > 10 µM |  | > 10 µM | > 10 µM |  |  |  |  |  |  | 
19 | Cc1ccc(-c2cc(-c3ccco3)nc(N)n2)o1 | > 100 µM |  | > 100 µM | > 100 µM | > 100 µM | > 100 µM | > 100 µM | > 100 µM | > 100 µM | > 100 µM |  |  |  |  |  |  | 
20 | CC(C)(C)C1CC[C@H]2c3c([nH]c4ccc(Br)cc34)[C@H]3C(=O)N(c4ccccc4)C(=O)[C@H]3[C@H]2C1 (stereo not given in full) | 35.1 µM | 78.7 µM | 23.6 µM | > 100 µM | > 100 µM | 33.3 µM | > 100 µM |  | 54.9 µM | 11.8 µM |  |  |  |  |  |  | 
21 | C=C/C(C)=C/[C@H](C)C(=O)C[C@H](O)CC1CC(=O)NC(=O)C1 | > 100 µM | > 89.6 µM |  | > 100 µM | > 100 µM | > 100 µM | > 100 µM | > 100 µM | > 100 µM | > 100 µM |  |  |  |  |  |  | 
22 | O=C1Nc2ccccc2C(=O)OC(Cc2ccccc2)=Nc2ccccc21 | > 100 µM |  | > 100 µM | > 100 µM | > 100 µM | > 100 µM | > 100 µM | > 100 µM | > 100 µM | > 100 µM |  |  |  |  |  |  | 
23 | C/C(=N\Nc1nc2cc(C)ccc2s1)c1ccccn1 | 0.699 µM | 10.3 µM | 9.59 µM |  | 6.69 µM | > 60.5 µM | > 20.2 µM | 41.2 µM | 22.7 µM | 12.1 µM |  |  |  |  |  |  | 
